Test results from patent US20210115040A1, “OGA INHIBITOR COMPOUNDS” (Janssen Pharmaceutica NV, priority 2018, published 2021).

Target: T1, OGA (Homo sapiens, UniProt O60502)
T1 construct: HEK293 cells inducible for P301L mutant human Tau (isoform 2N4R) were established at Janssen; endogenous in cells; host or cells: HEK293 cells inducible for P301L mutant human Tau (2N4R)
T1 sequence (O60502 1-916): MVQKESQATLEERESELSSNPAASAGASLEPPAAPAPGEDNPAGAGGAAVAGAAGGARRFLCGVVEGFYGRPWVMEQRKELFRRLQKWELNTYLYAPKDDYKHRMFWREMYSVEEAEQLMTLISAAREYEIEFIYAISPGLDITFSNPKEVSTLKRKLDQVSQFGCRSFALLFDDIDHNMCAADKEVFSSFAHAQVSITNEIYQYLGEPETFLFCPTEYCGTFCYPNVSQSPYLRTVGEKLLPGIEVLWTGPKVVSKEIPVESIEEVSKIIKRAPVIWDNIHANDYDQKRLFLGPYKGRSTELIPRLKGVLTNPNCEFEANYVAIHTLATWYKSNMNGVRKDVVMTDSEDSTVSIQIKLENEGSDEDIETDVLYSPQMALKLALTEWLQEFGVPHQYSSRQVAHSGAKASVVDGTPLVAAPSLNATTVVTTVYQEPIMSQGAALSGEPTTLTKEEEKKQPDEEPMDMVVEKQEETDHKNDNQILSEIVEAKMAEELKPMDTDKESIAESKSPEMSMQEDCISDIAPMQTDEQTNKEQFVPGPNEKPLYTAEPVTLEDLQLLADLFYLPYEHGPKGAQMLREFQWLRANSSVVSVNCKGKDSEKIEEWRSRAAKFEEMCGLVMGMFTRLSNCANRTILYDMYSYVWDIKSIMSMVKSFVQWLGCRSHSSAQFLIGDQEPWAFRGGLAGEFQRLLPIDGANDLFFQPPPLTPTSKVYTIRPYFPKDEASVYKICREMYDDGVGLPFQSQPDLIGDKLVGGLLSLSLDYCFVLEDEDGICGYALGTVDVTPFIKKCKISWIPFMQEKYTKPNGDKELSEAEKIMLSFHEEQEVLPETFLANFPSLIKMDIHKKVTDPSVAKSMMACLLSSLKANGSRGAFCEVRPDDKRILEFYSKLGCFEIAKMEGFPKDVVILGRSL
Assay: OGA cellular assay (ICC detection of O-GlcNAcylated proteins in HEK293 cells inducible for P301L mutant human Tau)
Assay type: cell-based
Summary of the method: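 HEK293 cells inducible for P301L Tau (2N4R), seeded in low-glucose medium, treated with compound for 6 h at 0.2% DMSO. O-GlcNAc immunostained with CTD110.6 after PFA fixation; 488 nm intensity imaged, Hoechst nuclei counted for toxicity. IC50 by non-linear regression, 200 uM Thiamet G as maximum.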

Emax (HEK293, HEK293 cells inducible for P301L mutant human Tau, maximum = Thiamet G 200 uM): 79%
EC50 (HEK293 cells inducible for P301L mutant human Tau, 6 hours incubation, read-out: Cellular hOGA, pEC50 (converted)): 63.1 nM
Structure (SMILES): Cc1cc(C2CCCN(C(C)c3ccc4sc(C)nc4n3)C2)cc(C)n1 (racemic) [Compound 39]
